Structures can show the parent of a compound that is named as a salt.
Tests used:
[1] = Investigation of the cataleptogenic effect (catalepsy); type: in vivo, Hann-Wistar rats (male); conditions: rats; for ED50 at 5 h: rat, in vivo, po, hourly observed for 5 hours; for Catalepsy (percent): 60 mg/kg p.o.
Procedure: (§1) The investigations were carried out on Hann-Wistar (LATI=a Hungarian firm with the name "Institute for Breeding Laboratory Animals") rats and CFLP (LATI) mice. The compounds to be tested were orally administered in a volume of 5 ml/kg of body-weight (abbreviated: ml/kg) to rats and in a volume of 10 ml/kg to mice 60 minutes before starting the experiment.
(§2) The substances were suspended in a solution of Tween 80 of 0.5% strength and then diluted to the desired concentration with physiological saline solution.
(§3) The results are expressed as percentages or, alternatively the ED50 values together with the 95% fiducial limits are given as calculated by means of the probit analysis [J. T. Litschfield and F. Wilcoxon: J. Pharmacol. 96, 99 (1949)].
2. Investigation of the cataleptogenic effect
The method of G. Stile and H. Launer [Arzneim.-Forsch. 21, 252 (1971)] was used for this test.
Male rats weighing 90 to 110 g (n=6) were treated with different doses of the compounds to be tested, then the number of the animals showing catalepsy was hourly observed for 5 hours.

[2] = H. Watchel et al., Life Sci. 33, 2583; cited from earlier work
[3] = Inhibition of the conditioned avoidance response (CAR inhibition); type: in vivo, Hann-Wistar rats (male); conditions: rats; for ED50: Rattus norvegicus, po, 1 h, p.o., 60 min before test
Procedure: as §1, §2, §3
1. Inhibition of the conditioned avoidance response (CAR inhibition)
The method of D. Bovet et al. (in: Neuropsychopharmacology Vol. 2., p. 142 ed. Elsevier Publishing House, Amsterdam, 1961) was used for this test.
Male rats weighing 140 to 160 g were conditioned for 10 days in an automated six-channel shuttle box (VKI). Each one session consisted of 30 cycles; the time of the partial cycles was 15 seconds for intersignal time, 15 seconds for light stimulus, 10 seconds for light stimulus and footshock (0.8 mA). The selected animals (n=6; selected on the basis of a performance higher than 80% at the 10th day) were treated with a 20 mg/kg dose of the compounds to be tested before the 11th session and their performance (i.e. the mean of the number of the conditioned avoidance responses) was compared to the value obtained for each group at the previous day taken as control value.

[4] = Investigation of the amphetamine group toxicity; type: in vivo, CFLP mice; conditions: d-amphetamine 21 mg/kg i.p., 24 hours, mice; for Amphetamine group tox. (percent): 30 mg/kg p.o.
Procedure: as §1, §2, §3
3. Investigation of the amphetamine group toxicity
The method of C. D. Proctor et al. [Arch. Int. Pharmacodyn. Ther. 163, 74 (1966)] was used for this test.
The examination was carried out on mice of both sexes weighing 22 to 27 g (n=5). At the 60th minute after administration of the compounds to be tested in a dose of 30 mg/kg, d-amphetamine in a dose of 21 mg/kg was intraperitoneally given to the animals tightly closed together (25 cm^2 /mouse) and the percentage of the perished animals was registered after 24 hours.

dopaminergic system = assay: Investigation of the apomorphine hypothermia-reverting effect; type: in vivo, Hann-Wistar rats; conditions: 10 mg/kg p.o., apomorphine 5 mg/kg i.p., rats
Procedure: as §1, §2, §3
4. Investigation of the apomorphine hypothermia-reverting effect
The method of A. Barnett et al. [Arch. Int. Pharmacodyn. Ther. 198, 242 (1972)] was used for this test.
The rectal temperature of rats (n=5) was determined by using an Ellab thermometer before administering the compounds to be tested in a dose of 10 mg/kg. Thereafter, a dose of 5 mg/kg of apomorphine was intraperitoneally given and the temperature of the animals was hourly registered for 3 hours.
The significant apomorphine-antagonizing action (reversion of the hypothermia) of the compounds is a proof of inhibition of the dopaminergic system.

[5] = Investigation of the asphyxial anoxia; type: in vivo, CFLP mice; conditions: for ED50: Mus musculus, po, 1 h, survival time longer by 30% than control = protected; for ED50 / Asphyxial anoxia (percent): mice; for Asphyxial anoxia (percent): 50 mg/kg p.o.
Procedure: as §1, §2, §3
5. Investigation of the asphyxial anoxia
The method of C. Caillard et al. [Life Sci. 16, 1607 (1975)] was used for this test.
Mice (n=5) of both sexes weighing 22 to 24 g were starved for 16 hours, then treated with a 50 mg/kg dose of the compounds to be tested. After 60 minutes, the animals were placed in tightly closed glass bottles of 100 ml volume and the survival time was registered.

Row | SMILES | ED50 at 5 h [1] | neuroleptic effect (in words) [2] | ED50 [3] | ED50 ([4]; Mus musculus, po, read-out: Amphetamine group tox. ED50) | Apomorphine hypothermia, difference of temperature change vs. apomorphine alone, 60 min (dopaminergic system) | Apomorphine hypothermia, difference of temperature change vs. apomorphine alone, 120 min (dopaminergic system) | ED50 [5] | Amphetamine group tox. (percent) [4] | Asphyxial anoxia (percent) [5] | Catalepsy (percent) [1] | CAR inhibition (percent) ([3]; 20 mg/kg p.o.) | antihypoxic effect (in words) ([5]; mice p.o.)
1 | CCN(CC)C(=O)NC1C=C2c3cccc4[nH]c(Br)c(c34)CC2N(C)C1 (stereo not drawn) [2-Bromolysuride, 2-bromolysuride, reference compound] | 3.3 mg/kg | strong neuroleptic effect | – | – | – | – | – | – | – | – | – | –
2 | CC(=O)OCC1C=C2c3cccc4c3c(c(Cl)n4C(C)=O)CC2N(C)C1 (stereo not drawn) [A, 1-Acetyl-8-acetyloxymethyl-2-chloro-6-methyl-9-ergolene] | 46.5 mg/kg | – | 3.4 mg/kg | 19.6 mg/kg | +1.3 °C | +1.3 °C | 34.8 mg/kg | – | – | – | – | –
3 | CC(=O)OCC1C=C2c3cccc4c3c(c(Cl)n4C=O)CC2N(C)C1 (stereo not drawn) [B, 8-acetyloxymethyl-2-chloro-1-formyl-6-methyl-9-ergolene hydrogen sulfate] | 51.9 mg/kg | – | 3.7 mg/kg | – | +2.0 °C | +2.4 °C | – | 10% | 20% | – | – | –
4 | CN1CC(CCl)C=C2c3cccc4c3c(c(Cl)n4C=O)CC21 (stereo not drawn) [C, 2-chloro-8-chloromethyl-1-formyl-6-methyl-9-ergolene] | – | – | 12.9 mg/kg | – | +0.6 °C | +1.2 °C | – | 0% | 50% | 0% | – | –
5 | CC(=O)OCC1C=C2c3cccc4c3c(c(Br)n4C(C)=O)CC2N(C)C1 (stereo not drawn) [D, 1-acetyl-8-acetyloxymethyl-2-bromo-6-methyl-9-ergolene] | 42.4 mg/kg | – | 4.6 mg/kg | – | +0.9 °C | +1.7 °C | – | 0% | 50% | – | – | –
6 | CN1CC(CO)C=C2c3cccc4c3c(c(Cl)n4C)CC21 (stereo not drawn) [E, 2-chloro-1,6-dimethyl-8-hydroxymethyl-9-ergolene maleate] | – | – | – | – | +0.8 °C | +1.8 °C | 8.6 mg/kg | 0% | – | 0% | 24% | the antihypoxic effect comes into prominence

Source: patent publication US4859682A, “2-Halogenated-8- and 1,8-substituted ergolenes” (Richter Gedeon Vegyeszeti Gyar Rt., priority 1986, dated 1989)
